Tested on: patients with prior myocardial infarction (CARE study)
Experiment: CARE: association of SNPs with pravastatin treatment in cardiovascular events prevention (logistic regression, odds ratio pravastatin vs placebo by genotype; Table 8)
Assay type: in vivo, human
Conditions: for Fatal/Non-fatal Atherosclerotic CV Disease, n/total (%) / Hosp. for Cardiovascular Disease, n/total (%) / Total Cardiovascular Disease Events, n/total (%) / Prava vs. Placebo Odds Ratio, 0 Rare Alleles / Prava vs. Placebo Odds Ratio, 1 Rare Alleles / Prava vs. Placebo Odds Ratio, 2 Rare Alleles / Fatal CHD/Definite Non-fatal MI, n/total (%) / Total Coronary Heart Disease Events, n/total (%): All Patients; for Fatal/Non-fatal Atherosclerotic CV Disease, n/total (%) / Hosp. for Cardiovascular Disease, n/total (%) / Total Cardiovascular Disease Events, n/total (%) / Fatal CHD/Definite Non-fatal MI, n/total (%) / Total Coronary Heart Disease Events, n/total (%): Prava; for Stroke, n/total (%): PECAM1 hCV16170911, All Patients, Prava arm
Text: In order to identify genetic markers associated with acute coronary events (e.g. MI, stroke, unstable angina, congestive heart failure, etc.) or response to statin treatment for the prevention of coronary events, samples from the Cholesterol and Recurrent Events (CARE) study (a randomized multicentral double-blinded trial on secondary prevention of acute coronary events with pravastatin) (Sacks et al., 1991, Am. J. Cardiol. 68: 1436-1446) were genotyped. A well-documented myocardial infarction (MI) was one of the enrollment criteria for entry into the CARE study. Patients were enrolled in the CARE trial from 80 participating study centers. […] Patients were randomized to receive either 40 mg of pravastatin once daily or a matching placebo. The primary endpoint of the trial was death from coronary heart disease and the median duration of follow-up was 5.0 years (range, 4.0 to 6.2 years). […] Secondary endpoints of other related cardiovascular or metabolic disease events, and changes in clinical variables were also recorded in pravastatin-treated and placebo groups. All individuals included in the study had signed a written informed consent form and the study protocol was approved by the respective Institutional Review Boards (IRBs).
For genotyping SNPs in CARE patient samples, DNA was extracted from blood samples using conventional DNA extraction methods such as the QIA-amp kit from Qiagen. Genotypes were obtained on an ABI PRISM® 7900HT Sequence Detection PCR system (Applied Biosystems, Foster City, Calif.) by kinetic allele-specific PCR, similar to the method described by Germer et al. (Germer S., Holland M. J., Higuchi R. 2000, Genome Res. 10: 258-266).
Statistical analysis for association of SNPs with pravastatin treatment in cardiovascular events prevention (Table 8) was carried out using an overall logistic regression model that included an intercept, a parameter for the effect of a genotype containing two rare alleles versus a genotype containing no rare alleles, a parameter for the effect of a genotype containing one rare allele versus a genotype containing no rare alleles, a parameter for the effect of use of pravastatin versus the use of placebo, and parameters for the interaction effects between SNP genotypes and pravastatin use. The test of the overall model is a chi-square test with two degrees of freedom for analyses containing all three genotypes, and one degree of freedom for analyses containing two genotypes.
Effect sizes were estimated through odds ratios (pravastatin group versus placebo) for carriers of each genotype (groups of 0, 1, and 2 minor allele carriers). The effect was considered to be significant if p-value for testing whether any of the interactions between SNP genotypes and pravastatin use were <0.05. […] Odds ratios less than one indicate that the specific SNP allele has a protective effect and odds ratios greater than one indicate that the specific SNP allele has an adverse effect.

[1] = NPC1 hCV7490135, Cardiovascular Mortality
[2] = NPC1 hCV7490135, Fatal Atherosclerotic Cardiovascular Disease
[3] = NPC1 hCV7490135, Fatal/Non-fatal Atherosclerotic CV Disease
[4] = NPC1 hCV7490135, Hosp. for Cardiovascular Disease
[5] = NPC1 hCV7490135, Total Cardiovascular Disease Events
[6] = NPC1 hCV7490135, Total Coronary Heart Disease Events
[7] = NPC1 hCV25472673, Fatal CHD/Definite Non-fatal MI
[8] = NPC1 hCV25472673, Fatal/Non-fatal Atherosclerotic CV Disease
[9] = NPC1 hCV25472673, Hosp. for Cardiovascular Disease
[10] = NPC1 hCV25472673, Total Cardiovascular Disease Events
[11] = NPC1 hCV25472673, Total Coronary Heart Disease Events
[12] = PEMT hCV7443062, Fatal CHD/Definite Non-fatal MI

Compound: CC[C@H](C)C(=O)O[C@H]1C[C@H](O)C=C2C=C[C@H](C)[C@H](CC[C@@H](O)C[C@@H](O)CC(=O)O)[C@H]21 [pravastatin]
- Fatal/Non-fatal Atherosclerotic CV Disease, n/total (%) (NPC1 hCV7490135, 2 Rare Alleles, n/total 93/324): (28.7%)
- Hosp. for Cardiovascular Disease, n/total (%) (NPC1 hCV7490135, 2 Rare Alleles, n/total 117/324): (36.1%)
- Total Cardiovascular Disease Events, n/total (%) (NPC1 hCV7490135, 2 Rare Alleles, n/total 119/324): (36.7%)
- Prava vs. Placebo Odds Ratio, 0 Rare Alleles [1]: 1.30
- Prava vs. Placebo Odds Ratio, 1 Rare Alleles [1]: 0.83
- Prava vs. Placebo Odds Ratio, 2 Rare Alleles [1]: 0.20
- Prava vs. Placebo Odds Ratio, 0 Rare Alleles [2]: 1.25
- Prava vs. Placebo Odds Ratio, 1 Rare Alleles [2]: 0.83
- Prava vs. Placebo Odds Ratio, 2 Rare Alleles [2]: 0.20
- Prava vs. Placebo Odds Ratio, 0 Rare Alleles [3]: 1.07
- Prava vs. Placebo Odds Ratio, 1 Rare Alleles [3]: 0.73
- Prava vs. Placebo Odds Ratio, 2 Rare Alleles [3]: 0.56
- Prava vs. Placebo Odds Ratio, 0 Rare Alleles [4]: 1.01
- Prava vs. Placebo Odds Ratio, 1 Rare Alleles [4]: 0.76
- Prava vs. Placebo Odds Ratio, 2 Rare Alleles [4]: 0.52
- Prava vs. Placebo Odds Ratio, 0 Rare Alleles [5]: 1.02
- Prava vs. Placebo Odds Ratio, 1 Rare Alleles [5]: 0.75
- Prava vs. Placebo Odds Ratio, 2 Rare Alleles [5]: 0.52
- Prava vs. Placebo Odds Ratio, 0 Rare Alleles [6]: 1.07
- Prava vs. Placebo Odds Ratio, 1 Rare Alleles [6]: 0.72
- Prava vs. Placebo Odds Ratio, 2 Rare Alleles [6]: 0.58
- Fatal CHD/Definite Non-fatal MI, n/total (%) (NPC1 hCV25472673, 0 Rare Alleles, n/total 65/596): (10.9%)
- Total Coronary Heart Disease Events, n/total (%) (NPC1 hCV25472673, 0 Rare Alleles, n/total 193/596): (32.4%)
- Fatal/Non-fatal Atherosclerotic CV Disease, n/total (%) (NPC1 hCV25472673, 0 Rare Alleles, n/total 221/596): (37.1%)
- Hosp. for Cardiovascular Disease, n/total (%) (NPC1 hCV25472673, 0 Rare Alleles, n/total 262/596): (44.0%)
- Total Cardiovascular Disease Events, n/total (%) (NPC1 hCV25472673, 0 Rare Alleles, n/total 274/596): (46.0%)
- Fatal CHD/Definite Non-fatal MI, n/total (%) (NPC1 hCV25472673, 1 Rare Allele, n/total 56/664): (8.4%)
- Total Coronary Heart Disease Events, n/total (%) (NPC1 hCV25472673, 1 Rare Allele, n/total 186/664): (28.0%)
- Fatal/Non-fatal Atherosclerotic CV Disease, n/total (%) (NPC1 hCV25472673, 1 Rare Allele, n/total 213/664): (32.1%)
- Hosp. for Cardiovascular Disease, n/total (%) (NPC1 hCV25472673, 1 Rare Allele, n/total 255/664): (38.4%)
- Total Cardiovascular Disease Events, n/total (%) (NPC1 hCV25472673, 1 Rare Allele, n/total 259/664): (39.0%)
- Fatal CHD/Definite Non-fatal MI, n/total (%) (NPC1 hCV25472673, 2 Rare Alleles, n/total 19/242): (7.9%)
- Total Coronary Heart Disease Events, n/total (%) (NPC1 hCV25472673, 2 Rare Alleles, n/total 59/242): (24.4%)
- Fatal/Non-fatal Atherosclerotic CV Disease, n/total (%) (NPC1 hCV25472673, 2 Rare Alleles, n/total 68/242): (28.1%)
- Hosp. for Cardiovascular Disease, n/total (%) (NPC1 hCV25472673, 2 Rare Alleles, n/total 88/242): (36.4%)
- Total Cardiovascular Disease Events, n/total (%) (NPC1 hCV25472673, 2 Rare Alleles, n/total 90/242): (37.2%)
- Prava vs. Placebo Odds Ratio, 0 Rare Alleles [7]: 1.00
- Prava vs. Placebo Odds Ratio, 1 Rare Alleles [7]: 0.65
- Prava vs. Placebo Odds Ratio, 2 Rare Alleles [7]: 0.41
- Prava vs. Placebo Odds Ratio, 0 Rare Alleles [8]: 1.03
- Prava vs. Placebo Odds Ratio, 1 Rare Alleles [8]: 0.73
- Prava vs. Placebo Odds Ratio, 2 Rare Alleles [8]: 0.41
- Prava vs. Placebo Odds Ratio, 0 Rare Alleles [9]: 1.02
- Prava vs. Placebo Odds Ratio, 1 Rare Alleles [9]: 0.72
- Prava vs. Placebo Odds Ratio, 2 Rare Alleles [9]: 0.40
- Prava vs. Placebo Odds Ratio, 0 Rare Alleles [10]: 1.03
- Prava vs. Placebo Odds Ratio, 1 Rare Alleles [10]: 0.71
- Prava vs. Placebo Odds Ratio, 2 Rare Alleles [10]: 0.39
- Prava vs. Placebo Odds Ratio, 0 Rare Alleles [11]: 1.01
- Prava vs. Placebo Odds Ratio, 1 Rare Alleles [11]: 0.73
- Prava vs. Placebo Odds Ratio, 2 Rare Alleles [11]: 0.44
- Stroke, n/total (%) (0 Rare Alleles): (1.5%)
- Stroke, n/total (%) (1 Rare Allele): (3.1%)
- Stroke, n/total (%) (2 Rare Alleles): (0.9%)
- Fatal CHD/Definite Non-fatal MI, n/total (%) (PEMT hCV7443062, 0 Rare Alleles, n/total 34/478): (7.1%)
- Fatal CHD/Definite Non-fatal MI, n/total (%) (PEMT hCV7443062, 1 Rare Allele, n/total 72/735): (9.8%)
- Fatal CHD/Definite Non-fatal MI, n/total (%) (PEMT hCV7443062, 2 Rare Alleles, n/total 34/305): (11.1%)
- Prava vs. Placebo Odds Ratio, 0 Rare Alleles [12]: 0.42
- Prava vs. Placebo Odds Ratio, 1 Rare Alleles [12]: 0.87
